Data reported in article PMC10884080, “A progesterone derivative linked to a stable phospholipid activates breast cancer cell response without leaving the cell membrane” (Cellular and Molecular Life Sciences: CMLS, 2024).

Biological target: T1, progesterone receptor (PR, PRb) (Homo sapiens, UniProt P06401)
T1 construct: gene PGR; wild type PRb expressed in PR-negative U2OS or TYML cells
T1 sequence (P06401 1-933): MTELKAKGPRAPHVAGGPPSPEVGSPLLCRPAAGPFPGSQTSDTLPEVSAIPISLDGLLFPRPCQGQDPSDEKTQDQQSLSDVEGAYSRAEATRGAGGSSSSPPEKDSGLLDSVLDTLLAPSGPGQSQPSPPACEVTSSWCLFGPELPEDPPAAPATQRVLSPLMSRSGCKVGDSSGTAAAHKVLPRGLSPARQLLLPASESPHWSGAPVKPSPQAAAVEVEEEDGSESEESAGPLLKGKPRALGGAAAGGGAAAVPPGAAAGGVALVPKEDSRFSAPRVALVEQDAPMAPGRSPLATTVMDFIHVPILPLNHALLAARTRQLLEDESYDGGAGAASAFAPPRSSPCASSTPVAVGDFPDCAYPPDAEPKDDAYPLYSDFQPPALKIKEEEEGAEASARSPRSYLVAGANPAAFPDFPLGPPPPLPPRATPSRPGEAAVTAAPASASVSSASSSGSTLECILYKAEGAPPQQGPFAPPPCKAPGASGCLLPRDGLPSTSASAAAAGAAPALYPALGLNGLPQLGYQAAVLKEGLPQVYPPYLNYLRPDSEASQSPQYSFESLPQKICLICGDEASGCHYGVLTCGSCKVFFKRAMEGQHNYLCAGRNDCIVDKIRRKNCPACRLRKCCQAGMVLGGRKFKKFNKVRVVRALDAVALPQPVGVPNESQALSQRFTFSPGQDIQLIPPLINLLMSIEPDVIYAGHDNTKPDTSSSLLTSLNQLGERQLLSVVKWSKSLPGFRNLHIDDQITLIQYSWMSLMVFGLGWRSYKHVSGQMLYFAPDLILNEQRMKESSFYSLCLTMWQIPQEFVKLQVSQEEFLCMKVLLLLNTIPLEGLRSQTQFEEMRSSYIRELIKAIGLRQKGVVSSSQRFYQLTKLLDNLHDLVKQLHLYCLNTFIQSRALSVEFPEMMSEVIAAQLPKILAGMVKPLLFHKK
Experiment: PR S294 phosphorylation and MMTV-luc/target gene induction by […] P4 in PR-negative cells transfected with wild type PRb
Type: cell-based

CC(=O)[C@H]1CC[C@H]2[C@@H]3CCC4=CC(=O)CC[C@]4(C)[C@H]3CC[C@]12C [P4, progesterone]
PR S294 phosphorylation and MMTV-luc/target gene induction by 10 nM P4 in PR-neg: only the wtPR-expressing cells activated the ERK kinase and led to PR phosphorylation
